Drawing on US20260317344A1, “EGFR INHIBITORS FOR TREATING DISEASE” (BLOSSOMHILL THERAPEUTICS, INC., priority 2023, published 2026), this text covers IC50 for six molecules.

The test system of test [1] is BaF3 cells with engineered EGFR L858R/T790M/C797S. The test can be described thus: 3-Day CellTiter Glo (CTG) cell proliferation assay, BaF3 EGFR L858R/T790M/C797S. In kind it is cell-based. Particulars: Mus musculus, 3-day CTG proliferation, 72 hours. How it is done:
(§1) 3-DAY CellTiter Glo (CTG) Cell Proliferation Assays (BaF3 Cell Lines)
(§2) Cell proliferation assays were carried out in BaF3 cells engineered with EGFR mutations. BaF3 cells with engineered EGFR L858R/T790M/C797S, EGFR L858R/C797S, or EGFR d746-750/T790M transgene, one thousand cells/50 μL per well were seeded in white 384-well plate, followed by treatment with indicated compounds in a 9-dose dilution series using TECAN d300e liquid dispenser. Cells were incubated with compounds for 72 hours at 37° C. and 5% CO2. Cell proliferation was measured using CellTiter-Gbo 2.0 luciferase-based ATP detection assay (Promega, Madison, WI) at 18 μL per well following the manufacturer's protocol. Plates were then read on a TECAN Sparks multimode microplate reader. Data was analyzed using GraphPad Prism 9 (GraphiPad Software, San Diego, CA) to obtain IC50 values.
(In general: ATP-based viability assays read luminescence as a measure of living cells.)

Test [2] concerns the target EGFR (D746-750) (Homo sapiens, UniProt P00533, DEL746-750). Put plainly: HotSpot radiometric kinase assay, inhibition of EGFR 746-750 mutant. It is filed as biochemical. Particulars: 33P ATP, room temperature, 120 m. The method in brief: (§3)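 Kinase/substrate pairs in 20 mM HEPES pH 7.5, 10 mM MgCl2, 1 mM EGTA, 0.02% Brij35, 0.02 mg/ml BSA, 0.1 mM Na3VO4, 2 mM DTT, 1% DMSO, preincubated ~20 min with compound. Reaction started with ATP/33P-ATP ([…]), run 120 min at room temperature; phosphorylation read by P81 filter binding, IC50 from curve fits.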

The target of test [3] is EGFR (D746-750/C797S) (Homo sapiens, UniProt P00533, C797S/DEL746-750). The test can be described thus: HotSpot radiometric kinase assay, inhibition of EGFR 746-750/C797S mutant. It is filed as biochemical. Particulars: 33P ATP, room temperature, 120 m. Summed up:
as §3

Test [4] concerns the target EGFR (D770_N771insNPG) (Homo sapiens, UniProt P00533, INS770NPG). Put plainly: HotSpot radiometric kinase assay, inhibition of EGFR (D770_N771insNPG) mutant. It is filed as biochemical. Particulars: 33P ATP, room temperature, 120 m. Summed up: as §3
The target in test [5] is EGFR (L858R/T790M/C797S) (Homo sapiens, UniProt P00533, C797S/L858R/T790M). The test can be described thus: HotSpot radiometric kinase assay, inhibition of EGFR L858R/T790M/C797S mutant. It is filed as biochemical. Particulars: 33P ATP, room temperature, 120 m. The method in brief: as §3
EGFR (L858R/T790M/C797S), sequence (P00533 25-1210 T790M/C797S/L858R): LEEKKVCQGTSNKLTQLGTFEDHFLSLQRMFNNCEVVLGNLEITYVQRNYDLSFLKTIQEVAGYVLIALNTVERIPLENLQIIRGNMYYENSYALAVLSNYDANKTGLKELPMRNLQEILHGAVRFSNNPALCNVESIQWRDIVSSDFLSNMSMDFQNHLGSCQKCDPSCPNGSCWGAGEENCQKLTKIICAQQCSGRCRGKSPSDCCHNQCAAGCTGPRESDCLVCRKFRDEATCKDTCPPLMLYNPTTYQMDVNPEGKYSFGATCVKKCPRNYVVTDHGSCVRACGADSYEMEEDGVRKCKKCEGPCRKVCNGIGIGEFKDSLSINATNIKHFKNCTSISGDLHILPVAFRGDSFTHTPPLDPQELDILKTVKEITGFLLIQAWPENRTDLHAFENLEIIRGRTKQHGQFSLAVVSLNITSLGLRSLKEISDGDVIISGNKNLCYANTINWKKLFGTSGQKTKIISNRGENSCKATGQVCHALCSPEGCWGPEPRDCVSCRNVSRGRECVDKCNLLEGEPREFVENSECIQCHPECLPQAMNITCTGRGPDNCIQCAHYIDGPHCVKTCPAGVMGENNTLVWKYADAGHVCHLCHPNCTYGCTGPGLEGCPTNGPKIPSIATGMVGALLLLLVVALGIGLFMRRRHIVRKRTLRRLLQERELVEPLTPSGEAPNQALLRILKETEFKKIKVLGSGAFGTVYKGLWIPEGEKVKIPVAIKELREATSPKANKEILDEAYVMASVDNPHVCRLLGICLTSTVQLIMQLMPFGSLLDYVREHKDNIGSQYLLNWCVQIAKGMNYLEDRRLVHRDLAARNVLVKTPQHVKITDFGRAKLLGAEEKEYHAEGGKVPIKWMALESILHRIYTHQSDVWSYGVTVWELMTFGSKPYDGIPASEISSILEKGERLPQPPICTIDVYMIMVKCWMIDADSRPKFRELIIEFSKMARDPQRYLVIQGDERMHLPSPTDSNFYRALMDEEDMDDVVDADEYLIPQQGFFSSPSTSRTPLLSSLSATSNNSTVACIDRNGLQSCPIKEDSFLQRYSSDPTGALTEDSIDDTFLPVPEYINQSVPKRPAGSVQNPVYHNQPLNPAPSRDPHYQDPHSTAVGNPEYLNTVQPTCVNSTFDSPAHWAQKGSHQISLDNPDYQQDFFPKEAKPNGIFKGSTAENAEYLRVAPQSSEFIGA
Test [6] has as its target T1, pEGFR, A431 cells (wildtype EGFR) (Homo sapiens, UniProt P00533).
T1 construct: pEGFR (Tyr1068) TR-FRET
The test can be described thus: Cellular EGFR phosphorylation assay (LANCE Ultra TR-FRET) in A431 cells. It is filed as cell-based. Particulars: 4 hours at 37° C., 40 ng/mL EGF for the final 10 minutes, read-out: A431 pEGFR IC50. The protocol: (§4) Cellular EGFR Phosphorylation Assays
(§5) EGFR phosphorylation assays were conducted in NSCLC cells with EGFR activation mutations. PC-9 cells (purchased from Aldrich-Sigma) carry a Glu746-Ala750 deletion (d746-750) mutation in exon 19 of the EGFR gene and NCI-H1975 cells (purchased from ATCC) carry both L858R activation mutation and T790M gatekeeper mutation in the EGFR gene. A431 cells (purchased from ATCC) with amplification of wildtype EGFR, derived from epidermoid carcinoma, were used to measure the activity against wildtype EGFR. All cells were seeded in 96-well plates. For PC-9 and NCI-H1975 cells, 50 thousand cells were seeded per well. For A431 cells, 30 thousand cells were seeded per well. The next day, cells were exposed to compound for 4 hours at 37° C. and 5% CO2. Compounds were diluted in DMSO and added to cells in a 9-dose, 3-fold dilution, titration curve using TECAN d300e liquid dispenser. For A431 cells, 40 ng/mL of EGF was added to the media for the final 10 minutes of incubation. EGFR phosphorylation was measured using phospho-EGFR (Try1068) LANCE Ultra TR-FRET Detection Kit (TRF4015M) from PerkinElmer according to manufacturer's instructions. In brief, cells were lysed with 40 μL of lysis buffer plus 1× Halt protease and phosphatase inhibitor cocktail (Thermo 78441) and by incubation at room temperature for 1 h on a microplate shaker (350 rpm). 15 μ L of cell lysate was transferred to 384-well white plate and 5 μL of Europium- and ULight-labeled antibodies diluted in 1× detection buffer was added to each well. After 4-6 hours of incubation at room temperature, plates were then read on a TECAN Sparks multimode microplate reader. Data was analyzed using GraphPad Prism 9 (GraphPad Software, San Diego, CA) to obtain IC50 values.
In general terms: In TR-FRET formats the signal depends on donor and acceptor labels being close together.

For test [7], the system named is NCI-H1975 cells. The test can be described thus: 5-Day CellTiter Glo (CTG) cell proliferation assay, NCI-H1975. It is filed as cell-based. Particulars: Homo sapiens; NCI-H1975 cells (L858R/T790M EGFR), 5-day CTG proliferation, 120 hours; read-out: H1975 IC50. Summed up: (§6)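 Luminescent ATP signal (CellTiter-Glo 2.0) after 120 hours of compound exposure gave IC50 values. PC-9 and HCC827 harbour EGFR d746-750; NCI-H1975 harbours L858R/T790M.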

Test [8] deals with T2, pEGFR, NCI-H1975 cells (L858R/T790M EGFR) (Homo sapiens, UniProt P00533, L858R/T790M).
T2 construct: pEGFR (Tyr1068) TR-FRET
T2 sequence (P00533 25-1210 T790M/L858R): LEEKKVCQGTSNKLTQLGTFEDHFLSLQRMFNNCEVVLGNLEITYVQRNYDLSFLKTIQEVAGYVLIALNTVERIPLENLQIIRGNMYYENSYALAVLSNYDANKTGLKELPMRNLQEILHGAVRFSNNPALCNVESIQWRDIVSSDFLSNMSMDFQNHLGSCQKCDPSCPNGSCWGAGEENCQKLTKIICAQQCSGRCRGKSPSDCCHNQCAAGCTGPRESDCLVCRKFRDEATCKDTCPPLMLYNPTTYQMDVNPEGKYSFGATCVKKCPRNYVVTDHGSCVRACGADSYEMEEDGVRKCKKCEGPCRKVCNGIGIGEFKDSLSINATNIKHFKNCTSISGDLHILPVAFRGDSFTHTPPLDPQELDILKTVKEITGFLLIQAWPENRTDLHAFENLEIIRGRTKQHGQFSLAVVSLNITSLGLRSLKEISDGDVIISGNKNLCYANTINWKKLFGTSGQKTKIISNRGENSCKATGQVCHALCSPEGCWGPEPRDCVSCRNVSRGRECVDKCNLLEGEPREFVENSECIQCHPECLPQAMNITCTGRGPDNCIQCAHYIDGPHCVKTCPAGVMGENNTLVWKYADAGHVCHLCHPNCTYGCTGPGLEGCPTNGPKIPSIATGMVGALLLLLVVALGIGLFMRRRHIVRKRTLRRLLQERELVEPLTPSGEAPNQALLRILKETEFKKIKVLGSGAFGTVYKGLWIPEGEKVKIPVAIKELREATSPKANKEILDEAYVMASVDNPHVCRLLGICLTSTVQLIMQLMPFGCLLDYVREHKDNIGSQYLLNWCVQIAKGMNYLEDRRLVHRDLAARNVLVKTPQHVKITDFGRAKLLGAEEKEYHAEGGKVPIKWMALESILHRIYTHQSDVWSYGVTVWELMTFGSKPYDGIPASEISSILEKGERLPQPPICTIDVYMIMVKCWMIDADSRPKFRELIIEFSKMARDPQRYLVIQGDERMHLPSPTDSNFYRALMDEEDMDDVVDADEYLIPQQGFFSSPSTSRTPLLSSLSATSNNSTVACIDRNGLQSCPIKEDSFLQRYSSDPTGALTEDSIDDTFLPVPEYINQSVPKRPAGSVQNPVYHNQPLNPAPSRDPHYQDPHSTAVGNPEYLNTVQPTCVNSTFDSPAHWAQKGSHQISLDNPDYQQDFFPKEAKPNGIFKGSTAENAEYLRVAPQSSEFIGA
The test can be described thus: Cellular EGFR phosphorylation assay (LANCE Ultra TR-FRET) in NCI-H1975 cells. It is filed as cell-based. Particulars: 4 hours at 37° C., read-out: H1975 pEGFR IC50. The protocol: as §4, §5

Test [9] concerns PC-9 cells. The test can be described thus: 5-Day CellTiter Glo (CTG) cell proliferation assay, PC-9. In kind it is cell-based. Particulars: Homo sapiens; PC-9 cells (d746-750 EGFR), 5-day CTG proliferation, 120 hours; read-out: PC-9 IC50. The method in brief: as §6
The target of test [10] is T3, pEGFR, PC-9 cells (d746-750 EGFR) (Homo sapiens, UniProt P00533, DEL746-750).
T3 construct: pEGFR (Tyr1068) TR-FRET
Put plainly: Cellular EGFR phosphorylation assay (LANCE Ultra TR-FRET) in PC-9 cells. Particulars: 4 hours at 37° C., read-out: PC-9 pEGFR IC50. It is filed as cell-based. The protocol: as §4, §5

For test [11], the system named is BaF3 cells with engineered EGFR L858R/C797S. Put plainly: 3-Day CellTiter Glo (CTG) cell proliferation assay, BaF3 EGFR L858R/C797S. It is filed as cell-based. Particulars: Mus musculus, 3-day CTG proliferation, 72 hours. How it is done:
as §1, §2

Test [12] relates to HCC827 cells. Put plainly: 5-Day CellTiter Glo (CTG) cell proliferation assay, HCC827. It is filed as cell-based. Particulars: Homo sapiens; HCC827 cells (d746-750 EGFR), 5-day CTG proliferation, 120 hours; read-out: HCC827 IC50. Summed up:
as §6

For test [13], the system named is BaF3 cells with engineered EGFR d746-750/T790M. The test can be described thus: 3-Day CellTiter Glo (CTG) cell proliferation assay, BaF3 EGFR d746-750/T790M. In kind it is cell-based. Particulars: Mus musculus; BaF3 EGFR d746-750/T790M cells, 3-day CTG proliferation, 72 hours. How it is done: as §1, §2

T1 sequence (P00533 25-1210): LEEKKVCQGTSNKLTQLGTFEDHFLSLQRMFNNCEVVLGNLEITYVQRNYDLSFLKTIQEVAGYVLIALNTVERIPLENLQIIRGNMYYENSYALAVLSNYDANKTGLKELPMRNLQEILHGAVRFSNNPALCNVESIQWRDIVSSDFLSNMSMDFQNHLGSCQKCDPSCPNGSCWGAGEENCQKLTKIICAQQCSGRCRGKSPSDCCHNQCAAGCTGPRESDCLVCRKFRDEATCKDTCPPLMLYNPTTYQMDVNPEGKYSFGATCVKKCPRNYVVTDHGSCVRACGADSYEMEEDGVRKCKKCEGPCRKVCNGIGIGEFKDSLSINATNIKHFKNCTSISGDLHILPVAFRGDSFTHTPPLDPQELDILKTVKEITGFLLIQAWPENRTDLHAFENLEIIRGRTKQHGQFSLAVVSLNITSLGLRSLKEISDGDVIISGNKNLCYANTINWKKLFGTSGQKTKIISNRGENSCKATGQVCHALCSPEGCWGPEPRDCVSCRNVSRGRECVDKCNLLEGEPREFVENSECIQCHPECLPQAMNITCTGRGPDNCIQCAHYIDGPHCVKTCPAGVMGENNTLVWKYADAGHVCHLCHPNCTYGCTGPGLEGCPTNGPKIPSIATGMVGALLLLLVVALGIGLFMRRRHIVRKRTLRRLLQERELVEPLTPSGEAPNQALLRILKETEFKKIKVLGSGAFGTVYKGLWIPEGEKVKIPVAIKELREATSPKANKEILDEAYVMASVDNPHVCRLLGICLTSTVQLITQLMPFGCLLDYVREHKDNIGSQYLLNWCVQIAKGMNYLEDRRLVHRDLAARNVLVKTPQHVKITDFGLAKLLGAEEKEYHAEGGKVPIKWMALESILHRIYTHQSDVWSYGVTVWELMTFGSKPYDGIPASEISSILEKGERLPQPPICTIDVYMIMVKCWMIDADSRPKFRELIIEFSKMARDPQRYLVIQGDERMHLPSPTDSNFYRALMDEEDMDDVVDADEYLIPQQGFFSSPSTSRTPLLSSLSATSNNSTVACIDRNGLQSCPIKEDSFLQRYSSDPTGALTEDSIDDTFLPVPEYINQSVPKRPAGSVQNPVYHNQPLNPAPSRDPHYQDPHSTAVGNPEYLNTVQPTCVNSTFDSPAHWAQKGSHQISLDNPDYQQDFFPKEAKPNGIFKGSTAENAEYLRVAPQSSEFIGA
EGFR (D770_N771insNPG), sequence (P00533 with tags, fused parts or gaps INS770NPG limits assumed): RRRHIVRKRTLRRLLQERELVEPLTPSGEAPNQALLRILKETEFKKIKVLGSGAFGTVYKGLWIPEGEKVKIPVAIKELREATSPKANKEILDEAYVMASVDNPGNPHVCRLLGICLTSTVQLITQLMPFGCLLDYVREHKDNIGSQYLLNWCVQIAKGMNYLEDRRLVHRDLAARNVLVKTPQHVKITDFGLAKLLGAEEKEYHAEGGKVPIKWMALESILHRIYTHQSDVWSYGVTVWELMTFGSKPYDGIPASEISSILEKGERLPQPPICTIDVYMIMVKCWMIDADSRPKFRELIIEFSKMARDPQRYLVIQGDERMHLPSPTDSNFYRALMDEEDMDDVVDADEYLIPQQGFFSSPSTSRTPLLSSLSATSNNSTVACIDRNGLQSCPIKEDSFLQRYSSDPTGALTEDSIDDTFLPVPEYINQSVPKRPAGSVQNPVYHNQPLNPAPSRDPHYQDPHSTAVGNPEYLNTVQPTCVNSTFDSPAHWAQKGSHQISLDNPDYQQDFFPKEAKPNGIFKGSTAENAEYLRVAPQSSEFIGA

With `CC(C)Oc1nn(CCO)c2c1/C=C/c1n[nH]c3cnc(cc13)-c1cnn(C)c1OC[C@H](C)N(C(C)C)C2` [Ex. 4, 2-[(11S,17E)-8,11-dimethyl-12-(propan-2-yl)-16-[(propan-2-yl)oxy]-2,8,10,11,12,13-hexahydro-14H-5,3-(azenometheno)tripyrazolo[3,4-f:3′,4′-j:4″,3″-n][1,4]oxazacyclopentadecin-14-yl]ethan-1-ol], the IC50 in [1] amounted to 2.81 nM; in test [2] it was 0.59 nM; in [3], 1.44 nM; in test [4], 3.07 nM; in test [5], 1.36 nM; in [6], 442 nM. Also, the IC50 in test [7] was found to be 74.9 nM; in [8] it was 17.7 nM; in test [9] it was 115 nM; in test [10] it was 789 nM; in test [11], 2.6 nM; in [12], 6.03 nM.
As to `Cc1nn(C)c2c1-c1cc3c(n[nH]c3cn1)/C=C/c1c(OCC#N)nn(CCO)c1CN(C)[C@@H](C)CO2` [Ex. 31], the half-inhibitory concentration (IC50) was 25.9 nM in [1]; 0.27 nM in test [2]; 0.78 nM in test [3]; 2.23 nM in test [4]; 0.29 nM in test [5]; 119 nM in test [6]. The half-inhibitory concentration (IC50) in test [7] came to 358 nM; in [8], 41.6 nM; in test [9] it was 226 nM; in test [10], 65.1 nM; in [11], 3.72 nM; in test [12] it was 11.6 nM.
`CCOc1nn(CCO)c2c1/C=C/c1n[nH]c3cnc(cc13)-c1c(C)nn(C)c1OCCN(C)C2` [Ex. 68, 2-[(17E)-16-ethoxy-6,8,12-trimethyl-2,8,10,11,12,13-hexahydro-14H-5,3-(azenometheno)tripyrazolo[3,4-f:3′,4′-j:4″,3″-n][1,4]oxazacyclopentadecin-14-yl]ethan-1-ol]: the IC50 in [2] is 0.33 nM; in [3], 1.18 nM; in [4], 0.95 nM; in [5], 0.44 nM; in [6], 21 nM; in test [7] it was 227 nM. Also, the IC50 is 6.39 nM in test [8], 15.4 nM in test [9], 6.22 nM in test [10] and 2.49 nM in test [12].
Take `CCOc1nn(CCO)c2c1/C=C/c1n[nH]c3cnc(cc13)-c1c(c(C)nn1C)OCCN(C)C2` [Ex. 69, 2-[(17E)-16-ethoxy-6,8,12-trimethyl-2,6,10,11,12,13-hexahydro-14H-5,3-(azenometheno)tripyrazolo[3,4-f:3′,4′-j:3″,4″-n][1,4]oxazacyclopentadecin-14-yl]ethan-1-ol]: the half-inhibitory concentration (IC50) in test [2] was found to be 1.87 nM; in [3] it was 3.68 nM; in [4], 15.3 nM; in [5], 1.93 nM; in test [6] it was 160 nM; in test [7], 308 nM. For the same molecule, the IC50 in test [8] was 262 nM; in test [9] it was 92 nM; in test [10], 75.4 nM; in test [12] it was 41.9 nM.
Turning to `CCN(C)c1nn([C@@H](C)CO)c2c1/C=C/c1n[nH]c3c(C)nc(cc13)-c1c(C)nn(C)c1O[C@@H](C)CN(C)C2` [Ex. 102, (2S)-2-[(10S,17E)-16-[ethyl(methyl)amino]-6,8,10,12,20-pentamethyl-2,8,10,11,12,13-hexahydro-14H-5,3-(azenometheno)tripyrazolo[3,4-f:3′,4′-j:4″,3″-n][1,4]oxazacyclopentadecin-14-yl]propan-1-ol], the IC50 in [1] came to 12.2 nM; in test [13], 204 nM; in test [7] it was 57 nM; in [9], 52.8 nM; in [11], 3.16 nM; in test [12], 25.3 nM.
`CCOc1nn([C@@H](C)CO)c2c1/C=C/c1n[nH]c3cnc(cc13)-c1c(C)nn(C)c1O[C@@H](C)CN(C(C)=O)C2` [Ex. 112, 1-[(10S,17E)-16-ethoxy-14-[(2S)-1-hydroxypropan-2-yl]-6,8,10-trimethyl-2,8,10,11,13,14-hexahydro-12H-5,3-(azenometheno)tripyrazolo[3,4-f:3′,4′-j:4″,3″-n][1,4]oxazacyclopentadecin-12-yl]ethan-1-one]: the results for the IC50 in test [1], in test [13] and in test [11] were 97.7 nM, 396 nM and 29.5 nM, respectively.

In general, IC50 refers to the concentration at which inhibition is half-maximal.
